Experimental data reported in US20230079819A1, “COMPOUNDS AND USES THEREOF” (Foghorn Therapeutics Inc., priority 2019, published 2023).

Legend:
BRM = molecular target: T1, BRM (Homo sapiens, UniProt P51531); test: ATPase catalytic activity of BRM, ADP-Glo in vitro biochemical assay; settings: ATPase catalytic activity, 30 nM BRM, 400 μM ATP, read-out: BRM IP50 (μM)*
T1 construct: made in house; host or cells: High Five insect cells

BRG-1 = molecular target: T2, BRG-1 (Homo sapiens, UniProt P51532); test: ATPase catalytic activity of BRG-1, ADP-Glo in vitro biochemical assay; settings: ATPase catalytic activity, 30 nM BRG-1, 400 μM ATP, read-out: BRG1 IP50 (μM)*
T2 construct: made in house; host or cells: High Five insect cells
T2 sequence (P51532 whole entry): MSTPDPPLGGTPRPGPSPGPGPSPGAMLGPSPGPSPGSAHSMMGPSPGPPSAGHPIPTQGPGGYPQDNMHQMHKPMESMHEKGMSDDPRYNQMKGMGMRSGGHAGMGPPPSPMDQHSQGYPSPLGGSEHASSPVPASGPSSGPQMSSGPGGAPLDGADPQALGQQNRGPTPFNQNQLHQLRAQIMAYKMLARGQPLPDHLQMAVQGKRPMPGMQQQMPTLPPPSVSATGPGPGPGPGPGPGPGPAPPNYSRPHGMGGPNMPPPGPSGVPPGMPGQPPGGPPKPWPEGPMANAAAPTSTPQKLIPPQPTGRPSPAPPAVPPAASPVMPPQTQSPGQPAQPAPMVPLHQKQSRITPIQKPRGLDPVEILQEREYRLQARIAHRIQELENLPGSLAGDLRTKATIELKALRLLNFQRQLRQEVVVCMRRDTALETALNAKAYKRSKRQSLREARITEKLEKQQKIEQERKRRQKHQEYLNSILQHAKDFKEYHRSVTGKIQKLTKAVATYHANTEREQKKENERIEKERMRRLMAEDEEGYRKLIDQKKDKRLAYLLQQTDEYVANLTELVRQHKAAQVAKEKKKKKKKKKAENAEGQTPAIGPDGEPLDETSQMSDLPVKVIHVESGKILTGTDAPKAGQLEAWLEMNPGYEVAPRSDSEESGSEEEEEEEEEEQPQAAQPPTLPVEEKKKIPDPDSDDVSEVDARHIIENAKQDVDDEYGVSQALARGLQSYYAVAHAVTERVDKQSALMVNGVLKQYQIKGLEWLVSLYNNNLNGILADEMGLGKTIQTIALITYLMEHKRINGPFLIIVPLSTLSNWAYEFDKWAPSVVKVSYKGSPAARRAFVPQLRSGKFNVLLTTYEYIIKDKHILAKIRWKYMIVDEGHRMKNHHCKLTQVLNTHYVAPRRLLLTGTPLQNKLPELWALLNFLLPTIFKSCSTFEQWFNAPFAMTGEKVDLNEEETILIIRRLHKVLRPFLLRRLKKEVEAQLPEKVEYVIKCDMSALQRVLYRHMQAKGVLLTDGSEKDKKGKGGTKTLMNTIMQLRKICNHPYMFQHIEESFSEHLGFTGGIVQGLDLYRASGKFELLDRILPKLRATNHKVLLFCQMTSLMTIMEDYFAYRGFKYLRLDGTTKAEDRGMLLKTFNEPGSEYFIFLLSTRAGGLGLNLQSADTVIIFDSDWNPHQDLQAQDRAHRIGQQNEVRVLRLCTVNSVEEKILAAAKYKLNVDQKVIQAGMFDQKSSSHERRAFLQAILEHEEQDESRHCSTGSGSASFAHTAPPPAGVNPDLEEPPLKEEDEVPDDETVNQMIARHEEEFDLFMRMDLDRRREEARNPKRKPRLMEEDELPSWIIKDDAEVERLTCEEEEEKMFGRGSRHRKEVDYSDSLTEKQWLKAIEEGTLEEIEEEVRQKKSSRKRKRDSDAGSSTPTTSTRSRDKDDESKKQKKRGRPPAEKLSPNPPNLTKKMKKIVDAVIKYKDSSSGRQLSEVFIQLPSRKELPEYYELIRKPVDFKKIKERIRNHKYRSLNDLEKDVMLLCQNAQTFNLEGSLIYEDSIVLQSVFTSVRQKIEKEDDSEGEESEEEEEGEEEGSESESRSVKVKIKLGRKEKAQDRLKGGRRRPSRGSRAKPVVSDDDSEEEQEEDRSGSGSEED

T1 sequence (P51531 whole entry): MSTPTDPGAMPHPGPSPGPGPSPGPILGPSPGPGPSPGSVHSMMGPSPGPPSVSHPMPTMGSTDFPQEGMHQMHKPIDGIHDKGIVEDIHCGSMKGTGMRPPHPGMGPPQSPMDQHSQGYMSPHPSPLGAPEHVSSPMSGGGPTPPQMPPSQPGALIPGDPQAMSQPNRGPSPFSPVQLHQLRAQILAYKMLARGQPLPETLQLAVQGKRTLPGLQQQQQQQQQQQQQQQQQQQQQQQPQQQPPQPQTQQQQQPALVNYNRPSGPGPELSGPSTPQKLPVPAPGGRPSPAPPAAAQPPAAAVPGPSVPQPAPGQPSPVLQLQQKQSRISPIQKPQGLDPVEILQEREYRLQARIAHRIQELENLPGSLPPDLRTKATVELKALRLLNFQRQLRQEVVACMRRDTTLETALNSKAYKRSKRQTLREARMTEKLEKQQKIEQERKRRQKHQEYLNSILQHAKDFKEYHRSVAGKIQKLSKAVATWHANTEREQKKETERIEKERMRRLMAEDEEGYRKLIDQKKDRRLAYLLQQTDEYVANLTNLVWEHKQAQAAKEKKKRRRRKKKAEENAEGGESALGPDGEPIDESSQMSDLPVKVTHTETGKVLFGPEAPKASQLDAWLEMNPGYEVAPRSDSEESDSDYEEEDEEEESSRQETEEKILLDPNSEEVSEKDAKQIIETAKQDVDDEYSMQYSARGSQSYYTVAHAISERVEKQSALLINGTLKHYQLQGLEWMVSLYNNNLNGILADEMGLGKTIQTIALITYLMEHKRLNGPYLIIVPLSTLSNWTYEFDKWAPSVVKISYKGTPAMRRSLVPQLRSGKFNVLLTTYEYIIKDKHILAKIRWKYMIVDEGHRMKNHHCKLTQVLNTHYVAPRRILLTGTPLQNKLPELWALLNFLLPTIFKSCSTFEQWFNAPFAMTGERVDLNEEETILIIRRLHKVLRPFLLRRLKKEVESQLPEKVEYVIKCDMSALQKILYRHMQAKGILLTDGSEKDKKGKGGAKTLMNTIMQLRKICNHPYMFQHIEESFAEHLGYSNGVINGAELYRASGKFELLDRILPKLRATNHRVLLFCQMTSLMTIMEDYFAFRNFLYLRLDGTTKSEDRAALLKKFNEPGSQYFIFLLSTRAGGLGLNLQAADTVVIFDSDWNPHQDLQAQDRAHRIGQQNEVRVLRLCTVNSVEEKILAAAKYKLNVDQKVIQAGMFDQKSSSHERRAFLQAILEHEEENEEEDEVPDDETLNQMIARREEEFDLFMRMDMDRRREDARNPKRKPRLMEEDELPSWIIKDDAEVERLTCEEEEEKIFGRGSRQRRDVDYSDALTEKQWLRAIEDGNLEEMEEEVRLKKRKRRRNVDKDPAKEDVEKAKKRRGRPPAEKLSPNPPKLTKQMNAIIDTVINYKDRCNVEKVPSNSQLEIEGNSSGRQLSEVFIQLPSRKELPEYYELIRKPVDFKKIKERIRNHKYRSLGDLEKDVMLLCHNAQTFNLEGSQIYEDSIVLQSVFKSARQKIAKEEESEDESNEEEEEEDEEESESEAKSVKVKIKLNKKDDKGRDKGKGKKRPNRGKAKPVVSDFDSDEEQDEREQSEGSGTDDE

Row | SMILES | IC50 (BRM) [µM] | IC50 (BRG-1) [µM]
1 | CS(=O)(=O)n1ccc(C(=O)NCC(=O)Nc2nc(-c3ccc4c(c3F)OCC4)cs2)c1 [Compound 264] | > 0.01 | > 0.01
2 | CS(=O)(=O)n1ccc(C(=O)NCC(=O)Nc2nc(-c3cccc(OC4CC4)c3)cs2)c1 [Compound 265] | > 0.01 | > 0.01
3 | CS(=O)(=O)n1ccc(C(=O)NCC(=O)Nc2nc(-c3cccc(OCF)c3)cs2)c1 [Compound 266] | > 0.01 | > 0.01
4 | C[C@@H]1CN(c2cc(-c3csc(NC(=O)CNC(=O)c4ccn(S(C)(=O)=O)c4)n3)cc(C3CC3)c2)C[C@H](C)O1 [Compound 267] | > 0.1 | > 0.1
5 | C[C@@H]1CN(c2cccc(-c3csc(NC(=O)CNC(=O)c4ccn(C5(C)COC5)c4)n3)c2F)C[C@H](C)O1 [Compound 268] | > 0.01 | > 0.1
6 | C[C@@H]1CN(c2cccc(-c3csc(NC(=O)CNC(=O)c4ccn(C(C)(C)C)c4)n3)c2F)C[C@H](C)O1 [Compound 269] | > 0.01 | > 0.01
7 | CN1CCc2ccc(-c3csc(NC(=O)CNC(=O)c4ccn(S(C)(=O)=O)c4)n3)cc21 [Compound 270] | > 0.01 | > 0.01
8 | CC1(n2ccc(C(=O)NCC(=O)Nc3nc(-c4ccc5c(c4)OCC5)cs3)c2)COC1 [Compound 271] | > 0.01 | > 0.1
9 | CNc1cccc(-c2csc(NC(=O)CNC(=O)c3ccn(C(C)(C)C)c3)n2)c1 [Compound 272] | > 0.01 | > 0.1
10 | CN1CCCCc2ccc(-c3csc(NC(=O)CNC(=O)c4ccn(S(C)(=O)=O)c4)n3)cc21 [Compound 273] | > 0.01 | > 0.1
11 | CS(=O)(=O)n1ccc(C(=O)NCC(=O)Nc2nc(-c3cccc(OC4CCCOC4)c3)cs2)c1 (stereo not shown) [Compound 274] | > 0.01 | > 0.01
12 | CS(=O)(=O)n1ccc(C(=O)NCC(=O)Nc2nc(-c3cccc(-c4cn(C(F)F)nn4)c3)cs2)c1 [Compound 275] | > 0.01 | > 0.01
13 | CS(=O)(=O)n1ccc(C(=O)NCC(=O)Nc2nc(-c3cccc(OC(F)(F)F)c3)cs2)c1 [Compound 276] | > 0.01 | > 0.01
14 | CS(=O)(=O)n1ccc(C(=O)NCC(=O)Nc2nc(-c3cccc(-c4cnn(C5CC5)n4)c3)cs2)c1 [Compound 277] | < 0.01 | > 0.01
15 | CS(=O)(=O)n1ccc(C(=O)NCC(=O)Nc2nc(-c3cccc(-c4cnnn4C(F)F)c3)cs2)c1 [Compound 278] | > 0.01 | > 0.01
16 | CS(=O)(=O)n1ccc(C(=O)NCC(=O)Nc2nc(-c3cccc(OC4CCOCC4)c3)cs2)c1 [Compound 279] | > 0.01 | > 0.01
17 | CNc1cccc(-c2csc(NC(=O)CNC(=O)c3ccn(S(C)(=O)=O)c3)n2)c1 [Compound 280] | > 0.01 | > 0.01
18 | CC(C)Oc1cccc(-c2csc(NC(=O)CNC(=O)c3ccn(S(C)(=O)=O)c3)n2)c1 [Compound 281] | > 0.01 | > 0.01
19 | CN1CCOc2ccc(-c3csc(NC(=O)CNC(=O)c4ccn(S(C)(=O)=O)c4)n3)cc21 [Compound 282] | < 0.01 | < 0.01

Row | SMILES | IC50 (BRM) [µM] | IC50 (BRG-1) [µM]
20 | CN1CCOc2ccc(-c3csc(NC(=O)CNC(=O)c4ccn(C(C)(C)C)c4)n3)cc21 [Compound 283] | > 0.01 | > 0.01
21 | CS(=O)(=O)n1ccc(C(=O)NCC(=O)Nc2nc(-c3cccc(OC4CCC4)c3)cs2)c1 [Compound 284] | > 0.01 | > 0.01
22 | CS(=O)(=O)n1ccc(C(=O)NCC(=O)Nc2nc(-c3cccc(OC(F)F)c3)cs2)c1 [Compound 285] | > 0.01 | > 0.01
23 | CCOc1cccc(-c2csc(NC(=O)CNC(=O)c3ccn(S(C)(=O)=O)c3)n2)c1 [Compound 286] | > 0.01 | > 0.01
24 | CN(C)c1cccc(-c2csc(NC(=O)CNC(=O)c3ccn(S(C)(=O)=O)c3)n2)c1 [Compound 287] | < 0.01 | > 0.01
25 | CN(C)c1cccc(-c2csc(NC(=O)CNC(=O)c3ccn(C(C)(C)C)c3)n2)c1 [Compound 288] | > 0.01 | > 0.01
26 | CS(=O)(=O)n1ccc(C(=O)NCC(=O)Nc2nc(-c3cccc(-c4cnn(C(F)F)n4)c3)cs2)c1 [Compound 289] | > 0.01 | > 0.01
27 | CS(=O)(=O)n1ccc(C(=O)NCC(=O)Nc2nc(-c3cccc(N4CC[C@@H](N)[C@H](F)C4)c3)cs2)c1 [Compound 290] | < 0.01 | > 0.01
28 | C[C@@H]1C[C@@H](COc2cccc(-c3csc(NC(=O)CNC(=O)c4ccn(S(C)(=O)=O)c4)n3)c2)C[C@H](C)O1 [Compound 291] | > 0.01 | > 0.01
29 | C[C@@H]1C[C@H](COc2cccc(-c3csc(NC(=O)CNC(=O)c4ccn(S(C)(=O)=O)c4)n3)c2)C[C@H](C)O1 [Compound 292] | > 0.1 | > 0.1
30 | C[C@@H]1CN(c2cc(-c3csc(NC(=O)CNC(=O)c4ccn(S(C)(=O)=O)c4)n3)ccc2F)C[C@H](C)O1 [Compound 293] | < 0.01 | < 0.01
31 | C[C@@H]1CN(c2cccc(-c3csc(NC(=O)CNC(=O)c4ccn(S(C)(=O)=O)c4)n3)c2F)C[C@H](C)O1 [Compound 294] | > 0.01 | > 0.01
32 | C[C@@H]1CN(c2cc(F)cc(-c3csc(NC(=O)CNC(=O)c4ccn(S(C)(=O)=O)c4)n3)c2)C[C@H](C)O1 [Compound 295] | < 0.01 | < 0.01
33 | Cc1cc(-c2cccc(-c3csc(NC(=O)CNC(=O)c4ccn(S(C)(=O)=O)c4)n3)c2)on1 [Compound 296] | > 0.01 | > 0.01
34 | C[C@@H]1CN(c2ccc(F)c(-c3csc(NC(=O)CNC(=O)c4ccn(S(C)(=O)=O)c4)n3)c2)C[C@H](C)O1 [Compound 297] | > 0.01 | > 0.1
35 | CS(=O)(=O)n1ccc(C(=O)NCC(=O)Nc2nc(-c3cccc(C4CCC4)c3)cs2)c1 [Compound 298] | > 0.01 | > 0.01
36 | C[C@@H]1CN(c2cc(-c3csc(NC(=O)CNC(=O)c4ccn(C(C)(C)C)c4)n3)ccn2)C[C@H](C)O1 [Compound 299] | < 0.01 | > 0.01
37 | CS(=O)(=O)n1ccc(C(=O)NCC(=O)Nc2nc(-c3cccc(OC[C@H]4CCOC4)c3)cs2)c1 [Compound 303, 1-methylsulfonyl-N-[2-oxo-2-[[4-[3-[[(3S)-tetrahydrofuran-3-yl]methoxy]phenyl]thiazol-2-yl]amino]ethyl]pyrrole-3-carboxamide] | < 0.01 | > 0.01
38 | CS(=O)(=O)n1ccc(C(=O)NCC(=O)Nc2nc(-c3cccc(OC[C@@H]4CCOC4)c3)cs2)c1 [Compound 304, 1-methylsulfonyl-N-[2-oxo-2-[[4-[3-[[(3R)-tetrahydrofuran-3-yl]methoxy]phenyl]thiazol-2-yl]amino]ethyl]pyrrole-3-carboxamide] | > 0.01 | > 0.01

Row | SMILES | IC50 (BRM) [µM] | IC50 (BRG-1) [µM]
39 | CN1CCCc2ccc(-c3csc(NC(=O)CNC(=O)c4ccn(C(C)(C)C)c4)n3)cc21 [Compound 305] | > 0.01 | > 0.01
40 | CN1CCCc2ccc(-c3csc(NC(=O)CNC(=O)c4ccn(S(C)(=O)=O)c4)n3)cc21 [Compound 306] | > 0.01 | > 0.01
41 | CS(=O)(=O)n1ccc(C(=O)NCC(=O)Nc2nc(-c3cccc(OCC4CCC4)c3)cs2)c1 [Compound 307] | > 0.01 | > 0.01
42 | CC(C)(C)n1ccc(C(=O)NCC(=O)Nc2nc(-c3ccc4c(c3)OCC4)cs2)c1 [Compound 308] | > 0.01 | > 0.01
43 | CS(=O)(=O)n1ccc(C(=O)NCC(=O)Nc2nc(-c3ccc4c(c3)OCC4)cs2)c1 [Compound 309] | > 0.01 | > 0.01
44 | CO[C@H]1CCCN(c2cccc(-c3csc(NC(=O)CNC(=O)c4ccn(C(C)(C)C)c4)n3)n2)C1 [Compound 311] | > 0.01 | > 0.01
45 | CO[C@@H]1CCCN(c2cccc(-c3csc(NC(=O)CNC(=O)c4ccn(C(C)(C)C)c4)n3)n2)C1 [Compound 312] | > 0.01 | > 0.01
46 | CO[C@H]1CCCN(c2cccc(-c3csc(NC(=O)CNC(=O)c4ccn(C5(C)COC5)c4)n3)n2)C1 [Compound 313] | > 0.1 | > 0.1
47 | CC(C)(C)n1ccc(C(=O)NCC(=O)Nc2nc(-c3cccc(N4CCC(O)CC4)n3)cs2)c1 [Compound 314] | > 0.01 | > 0.01
48 | C[C@@H]1CN(c2cccc(-c3csc(NC(=O)CNC(=O)c4ccn(C5(C)COC5)c4)n3)n2)C[C@H](C)O1 [Compound 316] | < 0.01 | > 0.01
49 | CC(C)(C)n1ccc(C(=O)NCC(=O)Nc2nc(-c3cccc(N4CC(N5CCOCC5)C4)n3)cs2)c1 [Compound 317] | > 0.1 | > 0.1
50 | COC[C@@H]1CCCN(c2cccc(-c3csc(NC(=O)CNC(=O)c4ccn(C(C)(C)C)c4)n3)n2)C1 [Compound 318] | > 0.01 | > 0.01
51 | COC[C@H]1CCCN(c2cccc(-c3csc(NC(=O)CNC(=O)c4ccn(C(C)(C)C)c4)n3)n2)C1 [Compound 319] | > 0.01 | > 0.01
52 | CC1(n2ccc(C(=O)NCC(=O)Nc3nc(-c4ccnc(N5CCC(O)CC5)n4)cs3)c2)COC1 [Compound 321] | > 0.01 | > 0.1
53 | CC(C)(C)n1ccc(C(=O)NCC(=O)Nc2nc(-c3ccnc(N4CCC(O)CC4)n3)cs2)c1 [Compound 322] | > 0.01 | > 0.01
54 | C[C@@H]1CN(c2nccc(-c3csc(NC(=O)CNC(=O)c4ccn(C5(C)COC5)c4)n3)n2)C[C@H](C)O1 [Compound 324] | > 0.01 | > 0.01
55 | C[C@@H]1CN(c2nccc(-c3csc(NC(=O)CNC(=O)c4ccn(S(C)(=O)=O)c4)n3)n2)C[C@H](C)O1 [Compound 325] | < 0.01 | < 0.01
56 | C[C@@H]1CN(c2nccc(-c3csc(NC(=O)CNC(=O)c4ccn(C(C)(C)C)c4)n3)n2)C[C@H](C)O1 [Compound 326] | < 0.01 | > 0.01
